Experiments:
Quadruplex DNA [1] = test: Binding affinity to c-MYC G4-quadruplex DNA (unknown origin) using fluorescent tagged FPu18T model assessed as stabilization by measuring change in melting temperature at 2 uM incubated in presence of non-fluorescent ds26 DNA by fluorescence based analysis; type: nucleic-acid assay
HepG2 = test: Antiproliferative activity against human HepG2 cells assessed as inhibition of cell growth incubated for 72 hrs by MTT assay; type: functional, cell-based; settings: HepG2, 72 h
DNA = test: Binding affinity to duplex DNA (unknown origin) using fluorescent tagged F10T model assessed as stabilization by measuring change in melting temperature at 2 uM by fluorescence based analysis; type: nucleic-acid assay
Quadruplex DNA [2] = test: Binding affinity to c-MYC G4-quadruplex DNA (unknown origin) using fluorescent tagged FPu18T model assessed as stabilization by measuring change in melting temperature at 2 uM by fluorescence based analysis; type: nucleic-acid assay
H22 = test: Antitumor activity against […] xenografted in ICR mouse assessed as inhibition of tumor growth at 20 mg/kg, iv administered for 21 days and measured every 2 days relative to control; type: functional; settings: H22, 504 h, time 21 day, read-out: TGI

| ΔTm (Quadruplex DNA [1]) | IC50 (HepG2) | ΔTm (DNA) | ΔTm (Quadruplex DNA [2]) | SMILES | inhibition in vivo at 20 mg/kg (H22) |
| --- | --- | --- | --- | --- | --- |
| 17.4 °C | 1.12 µM | 0.6 °C | 18.5 °C | CCCCCCCCc1c2[n+](cc3c(NCCCN4CCOCC4)c(OC)ccc13)CCc1cc3c(cc1-2)OCO3 | – |
| – | 1.02 µM | – | – | CCCCCCCCCCc1c2[n+](cc3c(NCCN(C)C)c(OC)ccc13)CCc1cc3c(cc1-2)OCO3 | – |
| 21.1 °C | 1.01 µM | 0.4 °C | 21.8 °C | CCCCCCCCc1c2[n+](c3c4c(c(OC)ccc14)N(CCN(C)C)C=C3)CCc1cc3c(cc1-2)OCO3 | – |
| – | – | – | – | O=P1(N(CCCl)CCCl)NCCCO1 (stereo unspecified) [CYCLOPHOSPHAMIDE ANHYDROUS] | 64.6% |
| – | 1.24 µM | – | – | CCCCCCCCCCCCc1c2[n+](cc3c(NCCN(C)C)c(OC)ccc13)CCc1cc3c(cc1-2)OCO3 | – |
